# Measurements from US9566312B2, “Cyclic peptides and use as medicines” (priority 2012, dated 2017).
# Read-outs that look alike come from different tables or passages of the source. Starred links: 1 amine or outer side, 2 acyl side, 3 side chain; linkers in the order of their positions; H or OH if unused. Non-standard residues stand in square brackets, D forms with d. Residues, ends and D or L forms follow the SMILES beside them. X12 = C[C@@H](CN1CCN(C2CCC2)CC1)[C@@H](C(=O)[*:2])N(C)[*:1]; X6 = C[C@@H](CN1CCN(C2COC2)CC1)[C@@H](C(=O)[*:2])N(C)[*:1]; X79 = COCCN1CCN(CC[C@@H](C)[C@@H](C(=O)[*:2])N(C)[*:1])CC1; X19 = COCCN1CCN(C[C@H](C)[C@@H](C(=O)[*:2])N(C)[*:1])CC1; NMe(dihydroBmt) = CCCC[C@@H](C)[C@@H](O)[C@H](NC)C(=O)O; X11 = CCN1CCN(C[C@H](C)[C@@H](C(=O)[*:2])N(C)[*:1])CC1; X20 = C[C@H](CCCN1CCOCC1)[C@@H](C(=O)[*:2])N(C)[*:1]; X18 = C[C@H](CCC(C)(C)O)[C@@H](C(=O)[*:2])N(C)[*:1]; X9 = C[C@@H](CN1CCOCC1)[C@@H](C(=O)[*:2])N(C)[*:1]; MeBmt = C/C=C/C[C@@H](C)[C@@H](O)[C@H](NC)C(=O)O; X15 = COCC(COC)[C@@H](C(=O)[*:2])N(C)[*:1]; NMeL = CN[C@@H](CC(C)C)C(=O)O; NMeV = CN[C@H](C(=O)O)C(C)C; dNMeA = CN[C@H](C)C(=O)O; Abu = CC[C@H](N)C(=O)O
# Key:
# cyclophilin B (CypB) = cyclophilin B (CypB) (Homo sapiens (Human), UniProt P23284); assay: Inhibitor binding to cyclophilin proteins by SPR, CypB; design: unit not given here; conditions: 1:1 binding model
# Method in brief: (§1)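 A 1:1 model fitted to single-cycle kinetic SPR data gave association and dissociation rates and KD. Compound series injected for 1 min each at 50 μL/min, then 10 min dissociation. Running buffer HEPES pH 7.4 with NaCl, P20 and 3% DMSO; target protein was biotinylated avi-tagged cyclophilin on a CAPture surface.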
# CYP3A4 = CYP3A4 (Homo sapiens (Human), UniProt P08684); assay: Time-dependent inhibition of CYP3A4;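 further: Two-step in vitro assay, kobs derived from residual CYP3A4 activity versus preincubation time per concentration, then kinact and KI by nonlinear fit of kobs against concentration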
# Description: Method 5: Measuring Time-Dependent Inhibition of CYP3A4
# The CYP3A4 time dependent inhibition potential of various inhibitors was determined by a two step in vitro assay. […] The inactivation rate constant (kobs) was obtained by plotting the activity remaining over pre-incubation time for each concentration of compound. The maximal inactivation rate (kinact) and the inactivation potency (KI) were calculated by non linear regression analysis of the inactivation rate constant (kobs) versus compound concentrations [I] curve according to the equation kobs=[kinact·[I]]/[KI+[I]]
# [1] = system: peripheral blood mononuclear cells (PBMC); assay: Anti-proliferative or immunosuppressive activity, BrdU incorporation in PHA-stimulated PBMC; format: cell-based; conditions: PHA 3 μg/ml, 60 hour compound treatment; read-out: EMV PBMC IC50
# Method in brief: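 BrdU ELISA read-out of DNA synthesis in freshly isolated PBMCs (two donors, 30,000 cells/well, X-VIVO 15). T-cell proliferation triggered with phytohemagglutinin at 3 μg/ml.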
# [2] = target: organic anion transporting polypeptide 1B1 (OATP1B1) (Homo sapiens (Human), UniProt Q9Y6L6); assay: OATP assay in CHO-OATP1B1 cells;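 further: inhibition of probe substrate uptake into the cells, ten minutes exposure, accumulated substrate read by fluorescence once cells were lysed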
# [3] = system: genotype 1b subgenomic HCV replicon in Huh7.5 cells; format: cell-based, hepatitis C virus; conditions: read-out: RPLN-1b IC50
# Method in brief: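 Replicon inhibition read as renilla luciferase signal versus DMSO controls after 72 h incubation, in Huh7.5 cells harbouring a genotype 1b subgenomic replicon; medium phenol red-free DMEM lacking G418. CC50 determined in parallel via Cell Titer-Glo.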
# CypF = CypF (Homo sapiens (Human), UniProt P30405); assay: Inhibitor binding to cyclophilin proteins by SPR, CypF; conditions: 1:1 binding model
# Method in brief: as §1
# cyclophilin A (CypA) = cyclophilin A (CypA) (Homo sapiens (Human), UniProt P62937); assay: Inhibitor binding to cyclophilin proteins by SPR, CypA; design: unit not given here; conditions: 1:1 binding model;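 further: Single-cycle kinetics on a Biacore T200, compound injected at several concentrations for 1 min each at 50 µL/min, then 10 min dissociation, in HEPES pH 7.4 buffer with 3% DMSO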
# [4] = genotype 1b replicon, 72 h incubation
# cyclophilin A (CypA), sequence (P62937 whole entry): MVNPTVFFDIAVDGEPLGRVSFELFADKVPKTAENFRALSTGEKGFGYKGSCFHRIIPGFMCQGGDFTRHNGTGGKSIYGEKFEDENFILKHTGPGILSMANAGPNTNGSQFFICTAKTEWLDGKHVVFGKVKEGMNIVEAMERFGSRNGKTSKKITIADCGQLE
# CYP3A4, sequence (P08684 whole entry): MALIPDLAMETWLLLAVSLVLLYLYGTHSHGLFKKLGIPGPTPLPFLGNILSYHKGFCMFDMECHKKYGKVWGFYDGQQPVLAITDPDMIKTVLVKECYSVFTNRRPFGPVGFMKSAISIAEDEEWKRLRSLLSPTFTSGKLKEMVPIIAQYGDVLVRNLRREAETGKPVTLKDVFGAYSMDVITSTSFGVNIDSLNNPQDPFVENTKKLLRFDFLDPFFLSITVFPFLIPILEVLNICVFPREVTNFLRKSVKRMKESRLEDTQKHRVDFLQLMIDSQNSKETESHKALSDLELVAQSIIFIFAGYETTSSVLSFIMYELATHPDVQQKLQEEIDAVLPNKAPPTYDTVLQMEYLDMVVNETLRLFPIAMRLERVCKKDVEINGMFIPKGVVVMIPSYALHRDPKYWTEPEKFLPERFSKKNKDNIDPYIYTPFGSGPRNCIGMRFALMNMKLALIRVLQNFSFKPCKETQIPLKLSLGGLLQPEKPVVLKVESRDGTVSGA
# CypF, sequence (P30405 30-207): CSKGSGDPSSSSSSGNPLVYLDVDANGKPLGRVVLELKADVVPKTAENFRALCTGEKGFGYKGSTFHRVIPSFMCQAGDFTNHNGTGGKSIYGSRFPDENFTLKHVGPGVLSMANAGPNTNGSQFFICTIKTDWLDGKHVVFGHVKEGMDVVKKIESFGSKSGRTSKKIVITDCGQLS
# organic anion transporting polypeptide 1B1 (OATP1B1), sequence (Q9Y6L6 whole entry): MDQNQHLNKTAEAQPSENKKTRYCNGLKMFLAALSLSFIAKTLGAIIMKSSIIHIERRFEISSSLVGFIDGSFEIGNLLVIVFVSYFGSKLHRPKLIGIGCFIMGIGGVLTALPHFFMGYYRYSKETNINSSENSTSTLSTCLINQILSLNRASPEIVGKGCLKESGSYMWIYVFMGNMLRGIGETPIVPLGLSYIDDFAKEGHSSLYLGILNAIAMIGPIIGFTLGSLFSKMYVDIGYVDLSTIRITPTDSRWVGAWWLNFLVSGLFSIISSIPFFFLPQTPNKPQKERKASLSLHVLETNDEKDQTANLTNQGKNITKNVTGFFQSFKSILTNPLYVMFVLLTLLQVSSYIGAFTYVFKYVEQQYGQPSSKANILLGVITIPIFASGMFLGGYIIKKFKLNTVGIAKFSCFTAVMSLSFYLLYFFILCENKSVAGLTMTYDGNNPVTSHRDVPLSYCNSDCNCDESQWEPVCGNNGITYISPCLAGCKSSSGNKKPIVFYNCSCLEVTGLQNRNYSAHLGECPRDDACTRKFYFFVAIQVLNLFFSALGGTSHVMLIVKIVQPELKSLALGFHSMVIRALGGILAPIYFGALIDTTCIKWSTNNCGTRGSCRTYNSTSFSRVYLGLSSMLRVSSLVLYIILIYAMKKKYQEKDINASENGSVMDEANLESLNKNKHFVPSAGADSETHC
# cyclophilin B (CypB), sequence (P23284 34-216): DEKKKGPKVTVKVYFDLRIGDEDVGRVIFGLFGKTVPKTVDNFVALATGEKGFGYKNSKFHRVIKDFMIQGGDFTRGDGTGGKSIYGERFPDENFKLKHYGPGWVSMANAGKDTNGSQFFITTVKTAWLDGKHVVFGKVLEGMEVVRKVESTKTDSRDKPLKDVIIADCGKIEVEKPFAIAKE
compound,measurement,setting,value
"C/C=C/C[C@@H](C)[C@@H](O)[C@H]1C(=O)N[C@@H](CC)C(=O)N(C)[C@H](C)C(=O)N(C)[C@@H](C(COC)COC)C(=O)N[C@@H](C(C)C)C(=O)N(C)[C@@H](CC(C)C)C(=O)N[C@@H](C)C(=O)N[C@H](C)C(=O)N(C)[C@@H](CC(C)C)C(=O)N(C)[C@@H](CC(C)C)C(=O)N(C)[C@@H](C(C)C)C(=O)N1C [Compound 2.11, 3-[D-Ala]-4-[(S)-4-methoxy-3-(methoxymethyl)-2-(methylamino)butanoyl]-cyclosporin] (cyclo(A[dA][NMeL][NMeL][NMeV][MeBmt][Abu][dNMeA][X15]V[NMeL]))",CypB Kd,cyclophilin B (CypB),1.3
same,Ki,CYP3A4,> 50 µM
same,IC50,[1],7.9 µM
same,IC50,[2],2.6 µM
same,IC50,[3]; [4],58 nM
same,CypF Kd,CypF,1.2 nM
same,CypA Kd,cyclophilin A (CypA),1.9
"C/C=C/C[C@@H](C)[C@@H](O)[C@H]1C(=O)N[C@@H](CC)C(=O)N(C)[C@H](C)C(=O)N(C)[C@@H]([C@H](C)CCC(C)(C)O)C(=O)N[C@@H](C(C)C)C(=O)N(C)[C@@H](CC(C)C)C(=O)N[C@@H](C)C(=O)N[C@H](C)C(=O)N(C)[C@@H](CC(C)C)C(=O)N(C)[C@@H](CC(C)C)C(=O)N(C)[C@@H](C(C)C)C(=O)N1C [Compound 2.12, 3-[D-Ala]-4-[(2S,3R)-6-hydroxy-3,6-dimethyl-2-(methylamino)heptanoyl]-cyclosporin] (cyclo(A[dA][NMeL][NMeL][NMeV][MeBmt][Abu][dNMeA][X18]V[NMeL]))",CypB Kd,cyclophilin B (CypB),1.1
same,Ki,CYP3A4,> 50 µM
same,IC50,[1],7.1 µM
same,IC50,[2],2.2 µM
same,IC50,[3],80 nM
same,CypF Kd,CypF,1.1 nM
same,CypA Kd,cyclophilin A (CypA),2.1
"C/C=C/C[C@@H](C)[C@@H](O)[C@H]1C(=O)N[C@@H](CC)C(=O)N(C)[C@H](C)C(=O)N(C)[C@@H]([C@@H](C)CN2CCOCC2)C(=O)N[C@@H](C(C)C)C(=O)N(C)[C@@H](CC(C)C)C(=O)N[C@@H](C)C(=O)N[C@H](C)C(=O)N(C)[C@@H](CC(C)C)C(=O)N(C)[C@@H](CC(C)C)C(=O)N(C)[C@@H](C(C)C)C(=O)N1C [Compound 2.17.1, 3-[D-Ala]-4[(2S,3S)-2-Amino-3-methyl-4-morpholin-4-yl-butanoyl]-cyclosporin] (cyclo(A[dA][NMeL][NMeL][NMeV][MeBmt][Abu][dNMeA][X9]V[NMeL]))",CypB Kd,cyclophilin B (CypB),0.4
same,Ki,CYP3A4,> 50 µM
same,IC50,[1],18 µM
same,IC50,[2],3.6 µM
same,IC50,[3]; [4],29 nM
same,CypF Kd,CypF,0.3 nM
same,CypA Kd,cyclophilin A (CypA),0.6
"C/C=C/C[C@@H](C)[C@@H](O)[C@H]1C(=O)N[C@@H](CC)C(=O)N(C)[C@H](C)C(=O)N(C)[C@@H]([C@@H](C)CN2CCN(CC)CC2)C(=O)N[C@@H](C(C)C)C(=O)N(C)[C@@H](CC(C)C)C(=O)N[C@@H](C)C(=O)N[C@H](C)C(=O)N(C)[C@@H](CC(C)C)C(=O)N(C)[C@@H](CC(C)C)C(=O)N(C)[C@@H](C(C)C)C(=O)N1C [Compound 2.17.2, 3-[D-Ala]-4[(2S,3S)-2-Amino-4-(4-ethyl-piperazin-1-yl)-3-methyl-butanoyl]-cyclosporin] (cyclo(A[dA][NMeL][NMeL][NMeV][MeBmt][Abu][dNMeA][X11]V[NMeL]))",CypB Kd,cyclophilin B (CypB),0.5
same,Ki,CYP3A4,> 50 µM
same,IC50,[1],14.5 µM
same,IC50,[2],5.1 µM
same,IC50,[3]; [4],35 nM
same,CypF Kd,CypF,0.5 nM
same,CypA Kd,cyclophilin A (CypA),0.6
"C/C=C/C[C@@H](C)[C@@H](O)[C@H]1C(=O)N[C@@H](CC)C(=O)N(C)[C@H](C)C(=O)N(C)[C@@H]([C@@H](C)CN2CCN(C3CCC3)CC2)C(=O)N[C@@H](C(C)C)C(=O)N(C)[C@@H](CC(C)C)C(=O)N[C@@H](C)C(=O)N[C@H](C)C(=O)N(C)[C@@H](CC(C)C)C(=O)N(C)[C@@H](CC(C)C)C(=O)N(C)[C@@H](C(C)C)C(=O)N1C [Compound 2.17.3, 3-[D-Ala]-4[(2S,3S)-2-Amino-4-(4-cyclobutyl-piperazin-1-yl)-3-methyl-butanoyl]-cyclosporin] (cyclo(A[dA][NMeL][NMeL][NMeV][MeBmt][Abu][dNMeA][X12]V[NMeL]))",CypB Kd,cyclophilin B (CypB),0.4
same,Ki,CYP3A4,> 50 µM
same,IC50,[1],6.7 µM
same,IC50,[2],4 µM
same,IC50,[3]; [4],31 nM
same,CypF Kd,CypF,0.3 nM
same,CypA Kd,cyclophilin A (CypA),0.5
"C/C=C/C[C@@H](C)[C@@H](O)[C@H]1C(=O)N[C@@H](CC)C(=O)N(C)[C@H](C)C(=O)N(C)[C@@H]([C@@H](C)CN2CCN(CCOC)CC2)C(=O)N[C@@H](C(C)C)C(=O)N(C)[C@@H](CC(C)C)C(=O)N[C@@H](C)C(=O)N[C@H](C)C(=O)N(C)[C@@H](CC(C)C)C(=O)N(C)[C@@H](CC(C)C)C(=O)N(C)[C@@H](C(C)C)C(=O)N1C [Compound 2.17.4, 3-[D-Ala]-4[(2S,3S)-2-Amino-4-[4-(2-methoxy-ethyl)-piperazin-1-yl]-3-methyl-butanoyl]-cyclosporin] (cyclo(A[dA][NMeL][NMeL][NMeV][MeBmt][Abu][dNMeA][X19]V[NMeL]))",CypB Kd,cyclophilin B (CypB),0.5
same,Ki,CYP3A4,> 50 µM
same,IC50,[1],2.7 µM
same,IC50,[2],3.2 µM
same,IC50,[3]; [4],31 nM
same,CypF Kd,CypF,0.3 nM
same,CypA Kd,cyclophilin A (CypA),0.6
"C/C=C/C[C@@H](C)[C@@H](O)[C@H]1C(=O)N[C@@H](CC)C(=O)N(C)[C@H](C)C(=O)N(C)[C@@H]([C@@H](C)CN2CCN(C3COC3)CC2)C(=O)N[C@@H](C(C)C)C(=O)N(C)[C@@H](CC(C)C)C(=O)N[C@@H](C)C(=O)N[C@H](C)C(=O)N(C)[C@@H](CC(C)C)C(=O)N(C)[C@@H](CC(C)C)C(=O)N(C)[C@@H](C(C)C)C(=O)N1C [Compound 2.17.5, 3-[D-Ala]-4[(2S,3S)-2-Amino-3-methyl-4-(4-oxetan-3-yl-piperazin-1-yl)-butanoyl]-cyclosporin] (cyclo(A[dA][NMeL][NMeL][NMeV][MeBmt][Abu][dNMeA][X6]V[NMeL]))",CypB Kd,cyclophilin B (CypB),0.5
same,Ki,CYP3A4,> 50 µM
same,IC50,[1],35.2 µM
same,IC50,[2],1.8 µM
same,IC50,[3]; [4],33 nM
same,CypF Kd,CypF,0.4 nM
same,CypA Kd,cyclophilin A (CypA),0.7
"CCCC[C@@H](C)[C@@H](O)[C@H]1C(=O)N[C@@H](CC)C(=O)N(C)[C@H](C)C(=O)N(C)[C@@H]([C@@H](C)CN2CCN(CCOC)CC2)C(=O)N[C@@H](C(C)C)C(=O)N(C)[C@@H](CC(C)C)C(=O)N[C@@H](C)C(=O)N[C@H](C)C(=O)N(C)[C@@H](CC(C)C)C(=O)N(C)[C@@H](CC(C)C)C(=O)N(C)[C@@H](C(C)C)C(=O)N1C [Compound 2.17.6, 1-dihydro-3-[D-Ala]-4[(2S,3S)-2-Amino-4-[4-(2-methoxy-ethyl)-piperazin-1-yl]-3-methyl-butanoyl]-cyclosporin] (cyclo(A[dA][NMeL][NMeL][NMeV][NMe(dihydroBmt)][Abu][dNMeA][X19]V[NMeL]))",CypB Kd,cyclophilin B (CypB),0.6
same,Ki,CYP3A4,> 50 µM
same,IC50,[1],14.6 µM
same,IC50,[2],3.3 µM
same,IC50,[3]; [4],20 nM
same,CypF Kd,CypF,0.5 nM
same,CypA Kd,cyclophilin A (CypA),0.9
"C/C=C/C[C@@H](C)[C@@H](O)[C@H]1C(=O)N[C@@H](CC)C(=O)N(C)[C@H](C)C(=O)N(C)[C@@H]([C@H](C)CCN2CCN(CCOC)CC2)C(=O)N[C@@H](C(C)C)C(=O)N(C)[C@@H](CC(C)C)C(=O)N[C@@H](C)C(=O)N[C@H](C)C(=O)N(C)[C@@H](CC(C)C)C(=O)N(C)[C@@H](CC(C)C)C(=O)N(C)[C@@H](C(C)C)C(=O)N1C [Compound 2.18.3, 3-[D-Ala]-4-[(2S,3R)-5-(4-(2-methoxyethyl)piperazin-1-yl)-3-methyl-2-(methylamino)pentanoyl]-cyclosporin] (cyclo(A[dA][NMeL][NMeL][NMeV][MeBmt][Abu][dNMeA][X79]V[NMeL]))",CypB Kd,cyclophilin B (CypB),0.6
same,Ki,CYP3A4,> 50 µM
same,IC50,[1],11.1 µM
same,IC50,[2],9.1 µM
same,IC50,[3]; [4],73 nM
same,CypF Kd,CypF,0.5 nM
same,CypA Kd,cyclophilin A (CypA),0.9
"C/C=C/C[C@@H](C)[C@@H](O)[C@H]1C(=O)N[C@@H](CC)C(=O)N(C)[C@H](C)C(=O)N(C)[C@@H]([C@H](C)CCCN2CCOCC2)C(=O)N[C@@H](C(C)C)C(=O)N(C)[C@@H](CC(C)C)C(=O)N[C@@H](C)C(=O)N[C@H](C)C(=O)N(C)[C@@H](CC(C)C)C(=O)N(C)[C@@H](CC(C)C)C(=O)N(C)[C@@H](C(C)C)C(=O)N1C [Compound 2.19.1, 3-[D-Ala]-4-[(2S,3R)-3-methyl-2-(methylamino)-6-morpholinohexanoyl]-cyclosporin] (cyclo([MeBmt][Abu][dNMeA][X20]V[NMeL]A[dA][NMeL][NMeL][NMeV]))",CypB Kd,cyclophilin B (CypB),0.5
same,NIM TDI kinact/Ki,CYP3A4; probe substrate midazolam,0.001 µL/min/pmol
same,IC50,[1],16.6 µM
same,IC50,[2],6.9 µM
same,IC50,[3],38 nM
same,CypF Kd,CypF,0.5 nM
same,CypA Kd,cyclophilin A (CypA),0.9
